Experimental data reported in patent US20120065181A1, “METHOD OF PROVIDING NEUROPROTECTION USING SUBSTITUTED PORPHYRINS” (priority 2009, published 2012).

Experiments:
[1] = tested on: rats subjected to 90 min MCAO; assay: Neurologic score after 90 min middle cerebral artery occlusion (MCAO); format: in vivo, rat; settings: then twice daily s.c. for 7 days
Description: (§1) Male Wistar rats (250-275 gm; Harlan Sprague Dawley, Inc. Indianapolis, Ind.) were anesthetized with 64-mg/kg intraperitoneal sodium pentobarbital and positioned in a stereotactic head frame. The skin was infiltrated with 1.0% lidocaine and a midline scalp incision was made. A burr hole was drilled over the left hemisphere, 7.2 mm anterior to the interauralline and 1.4 mm lateral to the sagittal suture. An intracerebroventricular (ICV) cannula (33 gauge) was positioned with the tip in the left lateral ventricle and fixed in place with screws and cyanoacrylate. The incision was closed with suture around this assembly. After emergence from anesthesia, the animals were returned to their cages with free access to water and food.
Following 2-3 days recovery, rats were allowed access to water but fasted from food for 12 hours to standardize glycemic state. Rats were then anesthetized with isoflurane in O2. Following tracheal intubation, the lungs were mechanically ventilated to maintain normocapnia. A 22-g needle thermistor was percutaneously placed adjacent to the skull beneath the temporalis. Pericranial temperature was servoregulated at 37.5±0.1° C. by surface heating or cooling. […]
Rats were subjected to 90 min middle cerebral artery occlusion. […] The doses were repeatedly twice daily as subcutaneous injections for 7 days after which neurologic function was assessed as described above. […]

[2] = tested on: subarachnoid hemorrhage (SAH) in mice; assay: Neurologic evaluation after murine subarachnoid hemorrhage (endovascular perforation); format: in vivo
Description: At completion of the predefined recovery interval, rats underwent a neurologic examination to evaluate sensorimotor function. The neurological scoring system evaluates four different functions (general status, simple motor deficit, complex motor deficit, and sensory deficit). The score given to each animal (by an observer blinded to group assignment) was the sum of all four individual scores, 0 being the minimum (best) score and 48 being the maximum (worst) score. This examination was developed combining features from several neurologic evaluations reported for rat MCAO and has been used in two long-term MCAO outcome studies to assess for differences in treatment outcome (Yokoo et al. Anesth Analg. 2004; 99:896-903; Sakai et al. Anesthesiology. 2007; 106:92-99; discussion 98-10.) Values from this scoring system correlate well with total infarct volume in rats allowed to survive 8 weeks post-MCAO (R2 value of 0.78, P=0.006, Sakai et al.) as well as 2 and 8 weeks post-MCAO (Yokoo et al.). […]
Seventy-two hrs post-SAH, mice were neurologically evaluated as described above, with the experimenter blinded to group assignment. Normal neurologic function was scored as 0 with the maximal deficit score=48. […]

IL-6 = assay: Cerebral IL-6 level by ELISA after MCAO; format: in vivo, rat; settings: 225 μg/kg IV 5 min after reperfusion, s.c. at 12 and 18 hrs post-MCAO; brains harvested 24 hrs post-MCAO; n=3; P=0.04
Procedure: (§2) Rats were subjected to 90 min middle cerebral artery occlusion. Five min after onset of reperfusion, rats were randomly treated with vehicle (n=3) or 225 μg/kg IV MnTnHex-2-PyP^5+ (n=3) followed by subcutaneous vehicle or 225 μg/kg MnTnHex-2-PyP^5+, respectively, at 12 and 18 hrs post-MCAO. Brains were harvested at 24 hrs post-MCAO and analyzed for TNF-α and IL-6 by fluorescent enzyme-linked immunosorbent assay. Whole cell lysates from the whole brain tissue were obtained at the end of each experiment according to manufacture's protocol (Roche) with light modification. In brief, about 100 mg of brain tissue, which was diced into small pieces using a clean razor blade on ice, was placed into a pre-chilled microcentrifuge tube and further processed with […] of ice-cold lysis buffer (50 mM Tris-HCl, pH 7.5, 150 mM NaCl, 1% Nonidet P40, 0.5% sodium deoxycholat, 0.1% SDS, protease inhibitors). Samples were homogenized 10 seconds and incubated for 30 minutes on ice. Homogenates were centrifuged at 14,000 g for 10 minutes at 4° C. Supernatants were collected and proteins were measured by a BCA Protein Assay Kit (Thermo Scientific). Cerebral levels of TNF-α and IL-6 were determined by rat specific ELISA kits (Thermo Scientific, IL) and normalized by the total amount of proteins (pg/mg).

NF-κB = assay: EMSA of NF-κB DNA binding in nuclear extracts of ischemic brain after MCAO; format: in vivo, rat; settings: 225 μg/kg IV after 90 min MCAO, ischemic brain harvested six hr later, 2 treated vs 2 vehicle rats
Procedure: (§3) Intravenous MnTnHex-2-PyP^5+ (hexyl) decreases post-ischemic NF-κB DNA binding to a κB consensus oligo due inhibition of NF-κB p65 nuclear translocation. Data are from 4 rats subjected to 90 min MCAO and then treated with vehicle or MnTnHex-2-PyP^5+ (225 μg/kg IV). Six hr later, ischemic brain was harvested for EMSA performed on nuclear extracts ([…]). Upper gel (EMSA): D and E (without and with p65 antibody, respectively) are rat #1 (vehicle). F and G (without and with p65 antibody, respectively) are rat #2 (hexyl). H and I=vehicle rat #3 (with and without p65). J and K=rat #4 (hexyl) with and without p65. A-C are control lanes (A=probe only, B=positive control (HeLa nuclear extract), C=cold competitor). Two slower migrating DNA binding complexes are observed (shift). The proteins in the slower migrating complexes were identified by super shift analysis with […] of p65-specific antibody. […] Lower gel: […]) from the same nuclear samples were immunoblotted with NF-κB p65-specific antibody, confirming NF-κB inhibition by MnTnHex-2-PyP^5+.

TNF-α = assay: Cerebral TNF-α level by ELISA after MCAO; format: in vivo, rat; settings: 225 μg/kg IV 5 min after reperfusion, s.c. at 12 and 18 hrs post-MCAO; brains harvested 24 hrs post-MCAO; n=3; P=0.04
Procedure: as §2

[3] = tested on: cerebral arteries of mice post-SAH; assay: Arterial cross-sectional diameter by intraluminal arterial casting after murine SAH; format: in vivo; settings: 72 hrs post-SAH
Procedure: Male mice (body weight=20-25 gm) were anesthetized with isoflurane and subjected to endovascular perforation of the right anterior cerebral artery just distal to the middle cerebral artery bifurcation. Mice were allowed to recover from anesthesia and randomly assigned to treatment ([…] MnTnHex-2-PyP^5+ twice per day, i.p. with treatment begun 60 min post-SAH, n=15) and vehicle (saline 0.1 ml twice a day, n=15) groups.
The mice were anesthetized and subjected to intraluminal arterial casting for later determination of arterial cross-sectional diameter. Subarachnoid clot size was graded using a standardized scoring system.
Three mice died in the vehicle group (2 died 3 days post-SAH, 1 died 2 days post-SAH). Neurologic scores in surviving mice and clot size were compared with the Mann-Whitney U statistic. Vessel diameters were compared with the Student's t test.

NF-κB p65 = assay: Immunoblot of nuclear samples with NF-κB p65-specific antibody after MCAO; format: in vivo, rat; settings: 225 μg/kg IV after 90 min MCAO; ischemic brain harvested six hr later
Procedure: as §3

[4] = tested on: rats subjected to 90 min MCAO; assay: Cerebral infarct volume after 90 min MCAO; format: in vivo, rat; settings: 7 days after MCAO
Description: as §1
Following 2-3 days recovery, rats were allowed access to water but fasted from food for 12 hours to standardize glycemic state. Rats were then anesthetized with isoflurane in O2. Following tracheal intubation, the lungs were mechanically ventilated to maintain normocapnia. A 22-g needle thermistor was percutaneously placed adjacent to the skull beneath the temporalis. Pericranial temperature was servoregulated at 37.5±0.1° C. by surface heating or cooling. The inspired isoflurane concentration was adjusted to 1.0-1.5% in 50% O2/balance N2. The tail artery was cannulated. The animals were then prepared for MCAO as previously described [Mackensen et al. J. Neurosci. 21:4582-4592, 2001; Longa et al. Stroke 20:84-91, 1989]. A midline cervical incision was made and the right common carotid artery was identified. […] The internal carotid artery (ICA) was dissected distally until the origin of the pterygopalatine artery was visualized. Following surgical preparation, a 20 min interval was allowed for physiologic stabilization.
Five min before MCAO onset, heparin (50 IU intra-arterial) was given to prevent intra-arterial thrombosis. A 0.25-mm diameter nylon monofilament, prepared with a silicone tip, was inserted into the ECA stump and passed distally through the ICA (20 mm from carotid bifurcation) until resistance was felt and the filament was secured. At MCAO onset, isoflurane was reduced to 0.8-1.0%.
After 90 min of MCAO, the occlusive filament was removed. The anesthetic state and pericranial temperature regulation were continued for an additional 100 min. The tail artery catheter was removed and the wounds were closed with suture. Isoflurane was discontinued. Upon recovery of the righting reflex, the tracheas were extubated and the animals were placed in an O2 enriched environment (FIO2=50%) for 1 hour. Animals were then randomized to experimental groups (see below).
Animals were weighed, anesthetized with isoflurane, and decapitated. The brains were removed, frozen at −40° C. in 2-methylbutane, and stored at −70° C. Infarct volume was measured by comparing the volume of histologically normal tissue observed in the ischemic hemisphere to the expected volume of normal tissue as derived from measurements of the contralateral, non-ischemic hemisphere [Swanson et al. J. Cereb. Blood Flow Metab. 10:290-293, 1990]. Serial quadruplicate […] coronal sections were taken using a cryotome at […] over the rostral-caudal extent of the infarct. The sections were dried and stained with hematoxylin and eosin. A section from each 660-μm interval was digitized with a video camera controlled by an image analyzer. […] With the observer blinded to experimental condition, the following regions of interest (ROI) were cursor outlined: non-infarcted ipsilateral cerebral cortex, non-infarcted ipsilateral subcortex, contralateral cerebral cortex, and contralateral subcortex. The area within each ROI (mm2) was determined by automated counting of calibrated pixels. Ipsilateral non-infarcted cortex and subcortex areas were subtracted from the corresponding contralateral ROI values to estimate the area of ischemic tissue damage to control for brain edema [Lin et al. Stroke 24:117-121, 1993]. […]

SMILES: CCCCCC[n+]1ccccc1-c1c2nc(c(-c3cccc[n+]3CCCCCC)c3ccc([n-]3)c(-c3cccc[n+]3CCCCCC)c3nc(c(-c4cccc[n+]4CCCCCC)c4ccc1[n-]4)C=C3)C=C2.[Mn+3] [MnTnHex-2-PyP^5+, Mn(III) 5,10,15,20-tetrakis(N-n-hexylpyridinium-2-yl)porphyrin]
- Neurologic score ([1]; 225 μg/kg i.v. 5 min after reperfusion onset, P=0.002 vs vehicle): improved
- Neurologic score ([1]; 225 μg/kg intra-arterial plus s.c. 6 hours after reperfusion onset, P=0.04 vs vehicle): improved
- neuroscore (median±interquartile range) ([2]; 72 hrs post-SAH, 225 mg/kg twice per day i.p. begun 60 min post-SAH, n=14, 0=no deficit, maximal deficit 48, P=0.02 vs vehicle (14±21)): 2.5±9
- deaths in treatment group ([2]; murine SAH, 225 mg/kg twice per day i.p., n=15, three mice died in vehicle group): One mouse in the MnTnHex-2-PyP^5+ group died at 2 days post-SAH
- IL-6 concentration in brain (IL-6): decreased
- post-ischemic NF-κB DNA binding to a κB consensus oligo (EMSA) (NF-κB): Marked reduction
- TNF-α concentration in brain (TNF-α): decreased
- right anterior cerebral artery diameter (mean±SD) ([3]; vs vehicle 82±36 μm, P=0.0005): 130±19 μm
- right middle cerebral artery diameter (mean±SD) ([3]; vs vehicle 83±33 μm, P=0.0033): 123±29 μm
- right internal carotid artery diameter (mean±SD) ([3]; vs vehicle 109±35 μm, P=0.015): 143±30 μm
- basilar artery diameter (mean±SD) ([3]; vs vehicle 198±19 μm, P=0.723, no effect of treatment): 200±17 μm
- NF-κB p65 nuclear translocation (immunoblot of nuclear samples) (NF-κB p65): inhibition
- cerebral infarct volume in the subcortex ([4]; 225 μg/kg i.v. 5 min after reperfusion onset, then twice a day s.c., P=0.01): reduced
- reduction in total infarct volume ([4]; 225 μg/kg i.v. 5 min after reperfusion onset, then twice a day s.c., P=0.028): 32%
- cerebral infarct volume in the cortex ([4]; 225 μg/kg i.v. 5 min after reperfusion onset, then twice a day s.c., P=0.05): reduced
- cerebral infarct volume in the cortex ([4]; 225 μg/kg intra-arterial plus s.c. 6 hrs after reperfusion onset, then twice daily s.c., P=0.01): reduced
- reduction in total infarct volume ([4]; 225 μg/kg intra-arterial plus s.c. 6 hrs after reperfusion onset, then twice daily s.c., P=0.03): 37%
- Infarct size in the subcortex ([4]; 225 μg/kg intra-arterial plus s.c. 6 hrs after reperfusion onset, then twice daily s.c., P=0.58): not changed
